Test results reported in ChEMBL document CHEMBL4422692, “Plant-Based Modulators of Endocannabinoid Signaling” (J Nat Prod, 2019).

What was measured:
[1] = biological target: T1, Diacylglycerol lipase-alpha (Homo sapiens, UniProt Q9Y4D2); assay: Inhibition of recombinant human DAGLalpha expressed in COS7 cells using [14C]-oleoyl-2-arachidonoyl-glycerol as substrate measured after 20 mins by beta-counting method; assay type: cell-based
T1 sequence (Q9Y4D2 whole entry): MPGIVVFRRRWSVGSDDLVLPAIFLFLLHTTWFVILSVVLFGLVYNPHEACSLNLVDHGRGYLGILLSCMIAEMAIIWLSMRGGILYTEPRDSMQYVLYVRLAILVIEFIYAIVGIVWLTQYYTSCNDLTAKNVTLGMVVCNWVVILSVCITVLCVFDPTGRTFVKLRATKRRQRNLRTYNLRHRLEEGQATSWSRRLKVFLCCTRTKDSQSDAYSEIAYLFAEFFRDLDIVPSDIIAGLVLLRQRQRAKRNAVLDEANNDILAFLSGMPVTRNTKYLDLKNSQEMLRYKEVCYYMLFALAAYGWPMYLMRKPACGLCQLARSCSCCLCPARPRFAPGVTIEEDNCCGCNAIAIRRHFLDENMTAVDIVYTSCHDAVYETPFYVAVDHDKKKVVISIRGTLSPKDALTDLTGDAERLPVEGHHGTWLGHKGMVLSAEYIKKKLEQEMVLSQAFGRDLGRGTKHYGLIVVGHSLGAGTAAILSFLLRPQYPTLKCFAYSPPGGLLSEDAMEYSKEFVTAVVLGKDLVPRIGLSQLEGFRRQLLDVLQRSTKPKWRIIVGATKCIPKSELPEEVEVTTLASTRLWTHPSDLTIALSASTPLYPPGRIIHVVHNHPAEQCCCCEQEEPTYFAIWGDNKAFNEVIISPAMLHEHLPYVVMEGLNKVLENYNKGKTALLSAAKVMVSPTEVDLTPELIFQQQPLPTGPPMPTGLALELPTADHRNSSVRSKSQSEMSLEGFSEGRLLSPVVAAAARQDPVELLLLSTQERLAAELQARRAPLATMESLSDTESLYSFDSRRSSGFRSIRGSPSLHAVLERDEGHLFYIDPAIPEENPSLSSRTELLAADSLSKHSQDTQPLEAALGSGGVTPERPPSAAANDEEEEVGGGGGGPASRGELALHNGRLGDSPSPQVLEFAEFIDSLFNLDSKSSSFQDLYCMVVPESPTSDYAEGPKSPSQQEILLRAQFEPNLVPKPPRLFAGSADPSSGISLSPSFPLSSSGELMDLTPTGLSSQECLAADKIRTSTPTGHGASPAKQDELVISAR

[2] = biological target: T2, Diacylglycerol lipase-alpha (Homo sapiens) (UniProt Q9Y4D2); assay: Inhibition of recombinant human DAGLalpha expressed in COS7 cells at 50 uM using [14C]-oleoyl-2-arachidonoyl-glycerol as substrate measured after 20 mins by beta-counting method relative to control; assay type: cell-based
T2 sequence (whole entry): T1 sequence (Q9Y4D2 whole entry)

[3] = Inhibition of MAGL in African green monkey COS cell homogenates using [3H]-arachidonoylglycerol as substrate measured after 20 mins by scintillation counting method; assay type: tissue-based, Chlorocebus aethiops
Chlorocebus aethiops [4] = species on record: Chlorocebus aethiops; assay: Inhibition of MAGL in African green monkey COS cell homogenates at 50 uM using [3H]-arachidonoylglycerol as substrate measured after 20 mins by scintillation counting method relative to control; assay type: tissue-based
[5] = biological target: T3, Fatty-acid amide hydrolase 1 (Rattus norvegicus, UniProt P97612); assay: Inhibition of FAAH in rat brain membranes using [14C]-AEA as substrate measured after 30 mins by scintillation counting method; assay type: cell membranes
T3 sequence (P97612 whole entry): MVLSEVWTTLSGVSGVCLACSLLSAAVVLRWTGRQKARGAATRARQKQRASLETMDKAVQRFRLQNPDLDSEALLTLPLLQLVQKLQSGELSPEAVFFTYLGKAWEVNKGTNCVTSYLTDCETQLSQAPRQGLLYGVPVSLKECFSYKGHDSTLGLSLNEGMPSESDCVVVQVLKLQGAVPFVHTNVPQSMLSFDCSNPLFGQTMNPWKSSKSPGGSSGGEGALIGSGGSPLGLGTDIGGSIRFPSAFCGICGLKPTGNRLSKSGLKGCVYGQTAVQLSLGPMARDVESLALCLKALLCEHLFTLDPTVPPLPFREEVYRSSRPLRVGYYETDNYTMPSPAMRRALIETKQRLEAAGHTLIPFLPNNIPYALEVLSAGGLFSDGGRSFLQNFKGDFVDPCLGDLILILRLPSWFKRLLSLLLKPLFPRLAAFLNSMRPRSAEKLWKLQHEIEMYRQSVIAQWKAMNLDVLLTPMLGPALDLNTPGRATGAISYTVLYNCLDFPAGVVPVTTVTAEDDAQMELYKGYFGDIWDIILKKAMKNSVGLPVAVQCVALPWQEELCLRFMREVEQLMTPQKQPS

[6] = biological target: T4, Fatty-acid amide hydrolase 1 (Rattus norvegicus) (UniProt P97612); assay: Inhibition of FAAH in rat brain membranes at 50 uM using [14C]-AEA as substrate measured after 30 mins by scintillation counting method relative to control; assay type: cell membranes
T4 sequence (whole entry): T3 sequence (P97612 whole entry)

[7] = biological target: T5, N-acylethanolamine-hydrolyzing acid amidase (Homo sapiens, UniProt Q02083); assay: Inhibition of recombinant human NAAA expressed in HEK293 cells using [14C]-N-palmitoylethanolamine as substrate measured after 30 mins by beta-counting method; assay type: cell-based
T5 sequence (Q02083 whole entry): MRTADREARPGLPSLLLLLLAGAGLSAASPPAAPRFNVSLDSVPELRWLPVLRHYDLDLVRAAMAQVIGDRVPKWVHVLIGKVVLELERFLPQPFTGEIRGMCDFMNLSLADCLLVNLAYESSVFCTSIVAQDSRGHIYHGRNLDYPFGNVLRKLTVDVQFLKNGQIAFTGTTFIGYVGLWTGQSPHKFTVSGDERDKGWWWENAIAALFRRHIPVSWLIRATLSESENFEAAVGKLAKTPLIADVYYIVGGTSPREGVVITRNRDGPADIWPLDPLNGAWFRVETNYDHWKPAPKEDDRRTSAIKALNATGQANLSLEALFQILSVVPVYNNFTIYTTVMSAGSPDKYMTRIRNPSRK

[8] = biological target: T6, N-acylethanolamine-hydrolyzing acid amidase (Homo sapiens) (UniProt Q02083); assay: Inhibition of recombinant human NAAA expressed in HEK293 cells at 100 uM using [14C]-N-palmitoylethanolamine as substrate measured after 30 mins by beta-counting method relative to control; assay type: cell-based
T6 sequence (whole entry): T5 sequence (Q02083 whole entry)

RBL-2H3 [9] = assay: Inhibition of [14C]-AEA uptake in rat RBL2H3 cells by scintillation counting method; assay type: functional, cell-based
RBL-2H3 [10] = assay: Inhibition of [14C]-AEA uptake in rat RBL2H3 cells at 25 uM by scintillation counting method relative to control; assay type: functional
[11] = biological target: T6, N-acylethanolamine-hydrolyzing acid amidase (Homo sapiens); assay: Inhibition of recombinant human NAAA expressed in HEK293 cells at 50 uM using [14C]-N-palmitoylethanolamine as substrate measured after 30 mins by beta-counting method relative to control; assay type: cell-based
Cannabinoid receptor 1 = Cannabinoid receptor 1 (Homo sapiens, UniProt P21554); assay: Displacement of [3H]-CP55940 from recombinant human CB1 receptor expressed in Sf9 cell membranes co-expressing Galphai3beta1gamma2 measured after 90 mins by scintillation counting method
Sequence of Cannabinoid receptor 1 (P21554 whole entry): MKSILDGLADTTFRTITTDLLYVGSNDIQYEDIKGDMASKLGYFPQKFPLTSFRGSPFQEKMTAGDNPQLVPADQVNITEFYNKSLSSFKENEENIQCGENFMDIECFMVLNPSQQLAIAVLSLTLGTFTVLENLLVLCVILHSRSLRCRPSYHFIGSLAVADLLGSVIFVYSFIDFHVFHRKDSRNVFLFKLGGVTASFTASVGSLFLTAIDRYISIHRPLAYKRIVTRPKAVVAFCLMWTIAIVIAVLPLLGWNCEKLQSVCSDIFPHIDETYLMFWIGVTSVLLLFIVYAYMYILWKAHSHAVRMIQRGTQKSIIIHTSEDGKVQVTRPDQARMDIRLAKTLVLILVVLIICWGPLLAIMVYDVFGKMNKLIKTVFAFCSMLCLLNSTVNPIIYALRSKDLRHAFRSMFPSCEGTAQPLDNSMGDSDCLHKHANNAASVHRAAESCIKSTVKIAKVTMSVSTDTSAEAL

Cannabinoid receptor 2 = Cannabinoid receptor 2 (Homo sapiens, UniProt P34972); assay: Displacement of [3H]-CP55940 from recombinant human CB2 receptor expressed in Sf9 cell membranes co-expressing Galphai3beta1gamma2 measured after 90 mins by scintillation counting method
Sequence of Cannabinoid receptor 2 (P34972 whole entry): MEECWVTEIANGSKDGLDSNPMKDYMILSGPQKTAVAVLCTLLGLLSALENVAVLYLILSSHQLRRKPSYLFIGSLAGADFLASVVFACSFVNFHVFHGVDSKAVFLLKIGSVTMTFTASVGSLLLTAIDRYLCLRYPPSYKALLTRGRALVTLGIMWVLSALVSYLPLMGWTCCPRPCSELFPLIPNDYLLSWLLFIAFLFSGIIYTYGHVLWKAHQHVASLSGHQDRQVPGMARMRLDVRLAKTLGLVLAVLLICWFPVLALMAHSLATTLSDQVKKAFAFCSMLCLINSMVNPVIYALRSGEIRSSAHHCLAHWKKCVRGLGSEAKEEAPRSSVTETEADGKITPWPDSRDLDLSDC

Chlorocebus aethiops [12] = species on record: Chlorocebus aethiops; assay: Inhibition of MAGL in African green monkey COS cell homogenates at 100 uM using [3H]-arachidonoylglycerol as substrate measured after 20 mins by scintillation counting method relative to control; assay type: tissue-based
[13] = biological target: T4, Fatty-acid amide hydrolase 1 (Rattus norvegicus); assay: Inhibition of FAAH in rat brain membranes at 100 uM using [14C]-AEA as substrate measured after 30 mins by scintillation counting method relative to control; assay type: cell membranes
[14] = biological target: T2, Diacylglycerol lipase-alpha (Homo sapiens); assay: Inhibition of recombinant human DAGLalpha expressed in COS7 cells at 100 uM using [14C]-oleoyl-2-arachidonoyl-glycerol as substrate measured after 20 mins by beta-counting method relative to control; assay type: cell-based

| Structure (SMILES) | IC50 [1] [µM] | Emax [2] [%] | IC50 [3] [µM] | Emax (Chlorocebus aethiops [4]) [%] | IC50 [5] [µM] | Emax [6] [%] | IC50 [7] [µM] | Emax [8] [%] | IC50 (RBL-2H3 [9]) [µM] | Emax at 25 µM (RBL-2H3 [10]) [%] | Emax [11] [%] | Ki (Cannabinoid receptor 1) [µM] | Ki (Cannabinoid receptor 2) [µM] | Emax (Chlorocebus aethiops [12]) [%] | Emax [13] [%] | Emax [14] [%] |
| --- | --- | --- | --- | --- | --- | --- | --- | --- | --- | --- | --- | --- | --- | --- | --- | --- |
| C=C(C)[C@@H]1CCC(C)=C[C@H]1c1c(O)cc(CCCCC)c(C(=O)O)c1O [CANNABIDIOLIC ACID] | 19.4 | 90.2 | > 50 | 18.5 | > 50 | 42.2 | 23 | 62.5 | > 25 | 36.3 | – | – | – | – | – | – |
| C=C(C)[C@@H]1CCC(C)=C[C@H]1c1c(O)cc(CCCCC)cc1O [CANNABIDIOL] | > 100 | 0 | > 100 | 0 | – | 68.6 | > 100 | – | 25.3 | 49.9 | 47.2 | – | – | – | – | – |
| C=C(C)[C@@H]1CCC(C)=C[C@H]1c1c(O)cc(CCC)cc1O [CANNABIDIVARIN] | 16.6 | 83.3 | > 100 | – | > 50 | – | 72.3 | – | 21.3 | 52.7 | 54.5 | 14.7 | 0.574 | 2.5 | 36.2 | – |
| CCCCCc1cc(O)c(C/C=C(\C)CCC=C(C)C)c(O)c1C(=O)O [CANNABIGEROLIC ACID] | 30.5 | – | > 50 | – | > 50 | 46.2 | > 50 | 33.2 | > 25 | 43.6 | – | – | – | 17.2 | – | 67.6 |
| CCCCCc1cc(O)c(C/C=C(\C)CCC=C(C)C)c(O)c1 [CANNABIGEROL] | > 100 | – | 95.7 | – | > 100 | – | > 100 | – | 11.3 | 85.4 | 19.4 | 0.897 | – | 54.2 | 44.9 | 44.8 |
| CCCCCc1cc(O)c2c(c1)OC(C)(C)c1ccc(C)cc1-2 [CANNABINOL] | > 50 | 26.9 | > 50 | 31.5 | > 50 | 29.1 | > 50 | 31.4 | 25 | 50 | – | 0.013 | 0.016 | – | – | – |
| CCCCCc1cc2c(c(O)c1C(=O)O)[C@@H]1C=C(C)CC[C@H]1C(C)(C)O2 [DELTA9-TETRAHYDROCANNABINOLIC ACID A] | 27.3 | 86.2 | 46 | – | > 50 | 38.8 | > 50 | 21.1 | > 25 | 34.4 | – | 0.024 | 0.056 | 86 | – | – |
| CCCc1cc(O)c2c(c1)OC(C)(C)[C@@H]1CCC(C)=C[C@@H]21 [TETRAHYDROCANNABIVARIN] | > 50 | 8.8 | > 50 | 18.2 | > 50 | – | > 100 | – | > 25 | 46.9 | 18.2 | – | – | – | 26.8 | – |
